Data taken from ChEMBL document CHEMBL3593228, “Hedgehog inhibitors from Artocarpus communis and Hyptis suaveolens” (Bioorg Med Chem, 2015).
Activity calls are given as the source filed them. No cut-off for these calls is given here.

Legend:
[1] = molecular target: T1, Zinc finger protein GLI1 (Homo sapiens) (UniProt P08151); assay: Inhibition of GLI1-DNA (unknown origin) complex formation at 15 to 30 uM after 20 mins by electrophoretic mobility shift assay
T1 sequence (whole entry): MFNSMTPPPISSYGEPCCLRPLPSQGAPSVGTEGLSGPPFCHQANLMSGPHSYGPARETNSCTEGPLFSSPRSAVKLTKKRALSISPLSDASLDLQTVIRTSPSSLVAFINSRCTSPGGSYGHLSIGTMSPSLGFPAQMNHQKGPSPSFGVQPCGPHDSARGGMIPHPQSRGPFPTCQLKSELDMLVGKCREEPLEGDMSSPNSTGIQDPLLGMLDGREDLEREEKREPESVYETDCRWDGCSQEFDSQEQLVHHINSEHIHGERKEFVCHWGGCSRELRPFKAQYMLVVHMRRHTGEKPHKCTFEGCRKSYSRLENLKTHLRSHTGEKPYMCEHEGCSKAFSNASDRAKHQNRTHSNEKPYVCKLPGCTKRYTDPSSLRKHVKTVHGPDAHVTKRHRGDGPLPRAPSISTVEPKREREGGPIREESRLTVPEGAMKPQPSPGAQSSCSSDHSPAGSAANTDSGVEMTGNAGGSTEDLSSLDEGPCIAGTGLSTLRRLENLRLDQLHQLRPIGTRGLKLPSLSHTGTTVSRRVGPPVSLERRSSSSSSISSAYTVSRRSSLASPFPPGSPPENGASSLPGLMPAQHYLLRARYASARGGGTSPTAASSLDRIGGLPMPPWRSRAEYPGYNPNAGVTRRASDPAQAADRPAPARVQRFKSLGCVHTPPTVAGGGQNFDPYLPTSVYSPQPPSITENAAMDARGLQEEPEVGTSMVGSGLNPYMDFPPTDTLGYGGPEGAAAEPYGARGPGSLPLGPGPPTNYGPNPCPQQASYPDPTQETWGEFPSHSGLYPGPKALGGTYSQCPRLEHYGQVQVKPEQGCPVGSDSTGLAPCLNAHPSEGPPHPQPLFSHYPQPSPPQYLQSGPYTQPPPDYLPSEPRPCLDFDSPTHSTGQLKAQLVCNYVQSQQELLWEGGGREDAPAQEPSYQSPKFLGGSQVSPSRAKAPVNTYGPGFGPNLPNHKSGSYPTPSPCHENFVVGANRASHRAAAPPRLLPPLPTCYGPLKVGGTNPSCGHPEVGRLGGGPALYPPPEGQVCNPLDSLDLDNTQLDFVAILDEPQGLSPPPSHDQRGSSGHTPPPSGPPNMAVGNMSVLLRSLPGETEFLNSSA

[2] = Cytotoxicity against Hh signaling abnormally activated human PANC1 cells after 24 hrs by fluorometric microculture assay; format: functional, cell-based; conditions: PANC-1, 24 h
[3] = Inhibition of hedgehog signaling pathway in human HaCaT cells assessed as GLI1-mediated transcriptional activity after 12 hrs by luciferase assay; format: cell-based
[4] = Cytotoxicity against mouse C3H10T1/2 cells after 24 hrs by fluorometric microculture assay; format: cell-based; conditions: C3H 10T1/2, 24 h
[5] = tested on: DU-145; assay: Cytotoxicity against Hh signaling abnormally activated human DU145 cells after 24 hrs by fluorometric microculture assay; format: functional, cell-based; conditions: DU-145, 24 h
[6] = Inhibition of hedgehog signaling pathway in human HaCaT cells assessed as reduction of BCL2 expression after 12 hrs by Western blotting; format: cell-based
[7] = Inhibition of hedgehog signaling pathway in human DU145 cells assessed as reduction of BCL2 expression at 7 to 13.9 uM after 12 hrs by Western blotting; format: cell-based; conditions: DU-145
[8] = molecular target: T1, Zinc finger protein GLI1 (Homo sapiens); assay: Inhibition of GLI1-DNA (unknown origin) complex formation at 15 to 150 uM after 20 mins by electrophoretic mobility shift assay
[9] = Inhibition of hedgehog signaling pathway in human HaCaT cells assessed as reduction of BCL2 expression at 13.9 uM after 12 hrs by Western blotting; format: cell-based
[10] = Inhibition of hedgehog signaling pathway in human HaCaT cells assessed as reduction of BCL2 expression at 7.6 uM after 12 hrs by Western blotting; format: cell-based

Row | SMILES | inhibition [1] | IC50 [2] [µM] | IC50 [3] [µM] | IC50 [4] [µM] | inhibition [3] | IC50 [5] [µM] | inhibition [6] | inhibition [7] | inhibition [8] | inhibition [9] | inhibition [10]
1 | COC(C)(C)CCC/C(C)=C/Cc1c(CCC(=O)c2ccc(O)cc2O)ccc(O)c1O | Active | > 75 | > 75 | > 75 | – | – | – | – | – | – | –
2 | CC(C)(O)CCCC1(C)CCc2c(CCC(=O)c3ccc(O)cc3O)ccc(O)c2O1 (stereo not given) | – | 36.7 | 29.5 | – | – | – | – | – | – | – | –
3 | CC(C)=CCC/C(C)=C/Cc1c(O)cc2c(c1O)C(=O)C[C@@H](c1ccc(O)cc1)O2 [BONANNIONE A] | – | 29.9 | 14.6 | > 75 | Dose-dependent effect | – | – | – | – | – | –
4 | CC(C)=CCC/C(C)=C/Cc1c(CCC(=O)c2ccc(O)cc2O)ccc(O)c1O | Active | 42.9 | 23.6 | > 75 | Dose-dependent effect | 80.6 | – | – | – | – | –
5 | CC(C)=CCCC1(C)CCc2c(CCC(=O)c3ccc(O)cc3O)ccc(O)c2O1 (stereo not given) | – | 59.5 | 44.2 | > 75 | Dose-dependent effect | – | – | – | – | – | –
6 | C=C1C(=O)O[C@H]2/C=C(\C)C[C@@H]3C=C(CC[C@@H](OO)C(=C)CC[C@H]12)C(=O)O3 | – | 15.7 | 4.7 | > 27.8 | Dose-dependent effect | 18.8 | Dose-dependent effect | Active | Active | Active | –
7 | C=C1C(=O)O[C@H]2/C=C(\C)C[C@@H]3C=C(C/C=C/[C@@](C)(OO)CC[C@H]12)C(=O)O3 | – | 17.9 | 7.6 | > 55.6 | Dose-dependent effect | 30.3 | Dose-dependent effect | Active | Active | – | –
8 | CC(C)(O)CCCC1(C)Oc2c(O)ccc(CCC(=O)c3ccc(O)cc3O)c2CC1O (stereo not given) | – | 58.8 | 43.5 | – | – | – | – | – | – | – | –
9 | C=C1C(=O)O[C@H]2/C=C(\C)C[C@@H]3C=C(CC/C=C(\C)CC[C@H]12)C(=O)O3 | – | 12.1 | 4 | > 30.5 | Dose-dependent effect | 32.6 | Dose-dependent effect | Active | inactive | – | Active
10 | C/C(=C\Cc1c(CCC(=O)c2ccc(O)cc2O)ccc(O)c1O)CCCC(C)(C)O | – | > 75 | > 75 | > 75 | – | – | – | – | – | – | –
11 | CC1(C)CCC[C@]2(C)Oc3c(O)ccc(CCC(=O)c4ccc(O)cc4O)c3C[C@@H]12 | – | 34.3 | 40.7 | > 75 | Dose-dependent effect | 53.7 | – | – | – | – | –
12 | C=C1C(=O)O[C@H]2/C=C(\C)C[C@@H]3C=C(C/C=C/[C@@](C)(O)CC[C@H]12)C(=O)O3 | – | 46.9 | 16.3 | > 50 | – | – | – | – | – | – | –
13 | COC(C)(C)CCCC1(C)CCc2c(CCC(=O)c3ccc(O)cc3O)ccc(O)c2O1 (stereo not given) | – | 48.3 | 39.9 | – | – | – | – | – | – | – | –
14 | CC(C)=CCCC1(C)Oc2c(O)ccc(CCC(=O)c3ccc(O)cc3O)c2CC1O (stereo not given) | – | 50 | 40.1 | > 75 | Dose-dependent effect | – | – | – | – | – | –
